# Laboratory results reported in patent US20260174682A1, “GAMMA-AMINOBUTYRIC ACID DERIVATIVE COMPRISING POLYCYCLIC STRUCTURE, METHOD FOR PREPARING SAME, AND USE THEREOF” (ZHONGSHAN INSTITUTE FOR DRUG DISCOVERY, SIMM, CAS., priority 2022, published 2026).
# Marks after values point to notes of the source that are not given here.
# Legend:
# [1] = target: T1, human recombinant calcium ion channel Cav2.2/β3/α2δ-1 (Homo sapiens, UniProt P54289); assay: In vitro binding to human recombinant calcium ion channel Cav2.2/β3/α2δ-1 ([3H]gabapentin competition); conditions: inhibition of binding of 5 nM [3H]gabapentin, CHO cell membranes, 25° C., 120 min; read-out: IC50
# T1 construct: expressed in transfected cells; host or cells: CHO cells (membranes)
# T1 sequence (P54289 25-956 limits assumed): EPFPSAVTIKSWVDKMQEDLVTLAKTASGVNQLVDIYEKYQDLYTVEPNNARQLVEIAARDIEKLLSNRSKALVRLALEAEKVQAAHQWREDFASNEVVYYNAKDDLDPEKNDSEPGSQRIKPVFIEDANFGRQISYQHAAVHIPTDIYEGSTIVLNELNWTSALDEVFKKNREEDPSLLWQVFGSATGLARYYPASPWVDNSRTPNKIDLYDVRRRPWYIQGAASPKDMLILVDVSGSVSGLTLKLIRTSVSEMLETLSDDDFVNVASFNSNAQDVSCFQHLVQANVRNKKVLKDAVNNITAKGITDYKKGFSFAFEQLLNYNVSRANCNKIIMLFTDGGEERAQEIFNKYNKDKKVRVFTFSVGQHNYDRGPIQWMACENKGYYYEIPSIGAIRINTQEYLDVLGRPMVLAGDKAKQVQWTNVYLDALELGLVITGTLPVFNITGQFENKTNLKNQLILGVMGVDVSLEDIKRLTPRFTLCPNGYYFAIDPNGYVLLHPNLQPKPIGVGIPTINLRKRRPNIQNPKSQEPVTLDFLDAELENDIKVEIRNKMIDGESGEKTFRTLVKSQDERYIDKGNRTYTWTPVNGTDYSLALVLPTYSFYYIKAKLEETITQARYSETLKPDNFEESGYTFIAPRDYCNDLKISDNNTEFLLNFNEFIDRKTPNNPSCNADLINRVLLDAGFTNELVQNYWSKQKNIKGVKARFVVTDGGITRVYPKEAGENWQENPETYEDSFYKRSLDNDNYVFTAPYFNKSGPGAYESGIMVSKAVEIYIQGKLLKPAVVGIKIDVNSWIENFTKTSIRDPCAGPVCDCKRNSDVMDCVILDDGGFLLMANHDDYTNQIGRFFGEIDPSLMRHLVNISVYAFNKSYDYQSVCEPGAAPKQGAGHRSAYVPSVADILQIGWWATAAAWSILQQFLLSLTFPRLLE
# T1 sequence (P54289 957-1103 partner limits assumed): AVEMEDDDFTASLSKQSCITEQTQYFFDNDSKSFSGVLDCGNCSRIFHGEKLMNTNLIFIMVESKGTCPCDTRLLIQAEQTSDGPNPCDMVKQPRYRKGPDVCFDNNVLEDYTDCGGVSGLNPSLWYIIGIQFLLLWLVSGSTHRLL
# T1 sequence (Q00975 whole entry partner): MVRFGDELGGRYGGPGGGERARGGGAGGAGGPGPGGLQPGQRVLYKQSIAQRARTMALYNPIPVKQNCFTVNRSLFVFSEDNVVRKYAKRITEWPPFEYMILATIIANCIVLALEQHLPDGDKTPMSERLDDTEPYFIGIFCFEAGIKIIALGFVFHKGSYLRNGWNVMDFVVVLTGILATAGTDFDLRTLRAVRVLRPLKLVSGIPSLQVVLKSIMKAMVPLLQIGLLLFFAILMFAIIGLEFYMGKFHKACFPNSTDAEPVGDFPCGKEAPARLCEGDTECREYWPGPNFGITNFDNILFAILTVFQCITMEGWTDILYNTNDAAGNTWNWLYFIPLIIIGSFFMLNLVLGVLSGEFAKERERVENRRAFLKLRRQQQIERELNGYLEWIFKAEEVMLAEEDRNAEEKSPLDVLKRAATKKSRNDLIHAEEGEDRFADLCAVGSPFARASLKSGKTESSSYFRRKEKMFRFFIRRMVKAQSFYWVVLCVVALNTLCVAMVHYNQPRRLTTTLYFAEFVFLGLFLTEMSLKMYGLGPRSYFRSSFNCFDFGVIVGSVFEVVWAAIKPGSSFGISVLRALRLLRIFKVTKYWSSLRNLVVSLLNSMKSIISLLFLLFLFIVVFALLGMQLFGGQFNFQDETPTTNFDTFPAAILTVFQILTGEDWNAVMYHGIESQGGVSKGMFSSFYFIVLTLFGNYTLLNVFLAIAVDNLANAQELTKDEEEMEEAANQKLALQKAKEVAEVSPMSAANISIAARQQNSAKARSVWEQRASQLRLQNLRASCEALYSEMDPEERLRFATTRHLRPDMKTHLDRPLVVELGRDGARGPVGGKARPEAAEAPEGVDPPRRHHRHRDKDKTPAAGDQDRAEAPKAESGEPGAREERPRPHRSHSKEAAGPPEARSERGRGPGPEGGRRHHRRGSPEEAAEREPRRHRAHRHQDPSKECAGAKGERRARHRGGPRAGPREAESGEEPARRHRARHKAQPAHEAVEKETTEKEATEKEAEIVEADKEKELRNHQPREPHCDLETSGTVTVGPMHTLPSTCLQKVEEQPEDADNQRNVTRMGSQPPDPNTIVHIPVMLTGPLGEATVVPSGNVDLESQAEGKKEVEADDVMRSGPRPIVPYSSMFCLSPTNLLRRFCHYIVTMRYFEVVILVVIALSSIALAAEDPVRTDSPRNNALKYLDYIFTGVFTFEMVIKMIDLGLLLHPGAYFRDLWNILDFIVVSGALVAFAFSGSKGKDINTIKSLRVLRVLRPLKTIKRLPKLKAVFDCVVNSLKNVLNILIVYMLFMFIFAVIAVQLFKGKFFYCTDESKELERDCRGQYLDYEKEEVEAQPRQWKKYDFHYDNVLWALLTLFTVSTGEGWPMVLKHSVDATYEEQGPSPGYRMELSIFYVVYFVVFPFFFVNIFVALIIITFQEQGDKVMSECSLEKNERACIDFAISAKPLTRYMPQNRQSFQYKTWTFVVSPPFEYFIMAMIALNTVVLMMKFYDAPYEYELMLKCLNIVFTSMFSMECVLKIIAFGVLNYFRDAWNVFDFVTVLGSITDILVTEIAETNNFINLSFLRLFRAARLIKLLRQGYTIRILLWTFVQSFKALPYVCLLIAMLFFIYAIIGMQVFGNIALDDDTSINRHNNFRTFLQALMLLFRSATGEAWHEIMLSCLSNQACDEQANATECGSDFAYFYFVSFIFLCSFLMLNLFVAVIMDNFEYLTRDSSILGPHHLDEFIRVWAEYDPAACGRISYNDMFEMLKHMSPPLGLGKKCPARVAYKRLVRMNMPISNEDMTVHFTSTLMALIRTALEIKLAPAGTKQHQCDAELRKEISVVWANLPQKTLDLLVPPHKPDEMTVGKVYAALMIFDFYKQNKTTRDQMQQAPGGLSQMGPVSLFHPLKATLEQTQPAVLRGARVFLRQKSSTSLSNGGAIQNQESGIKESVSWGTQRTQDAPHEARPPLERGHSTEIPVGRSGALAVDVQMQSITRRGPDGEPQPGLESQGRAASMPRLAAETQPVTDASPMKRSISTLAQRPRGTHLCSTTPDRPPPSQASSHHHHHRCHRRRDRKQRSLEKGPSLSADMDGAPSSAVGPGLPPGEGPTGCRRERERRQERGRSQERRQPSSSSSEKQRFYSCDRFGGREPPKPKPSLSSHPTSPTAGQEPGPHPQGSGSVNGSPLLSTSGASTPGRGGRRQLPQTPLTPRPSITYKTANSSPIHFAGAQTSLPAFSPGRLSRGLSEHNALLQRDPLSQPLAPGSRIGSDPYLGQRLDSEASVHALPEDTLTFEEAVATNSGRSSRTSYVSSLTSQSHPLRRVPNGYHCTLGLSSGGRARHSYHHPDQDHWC
# T1 sequence (P54284 whole entry partner): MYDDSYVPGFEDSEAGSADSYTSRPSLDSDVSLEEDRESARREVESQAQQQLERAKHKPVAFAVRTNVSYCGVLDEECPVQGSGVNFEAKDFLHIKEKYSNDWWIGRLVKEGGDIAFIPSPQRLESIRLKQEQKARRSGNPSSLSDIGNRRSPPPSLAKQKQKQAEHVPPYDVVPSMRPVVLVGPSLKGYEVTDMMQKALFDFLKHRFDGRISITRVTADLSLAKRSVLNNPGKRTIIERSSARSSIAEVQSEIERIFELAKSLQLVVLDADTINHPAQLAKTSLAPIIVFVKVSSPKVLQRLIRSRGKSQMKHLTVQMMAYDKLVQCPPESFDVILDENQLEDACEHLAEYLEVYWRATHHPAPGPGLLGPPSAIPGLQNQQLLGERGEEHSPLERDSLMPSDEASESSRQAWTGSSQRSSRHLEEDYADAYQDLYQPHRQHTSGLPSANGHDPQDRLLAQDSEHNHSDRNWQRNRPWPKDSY
# Text: Example 28 In Vitro Binding of Compounds to Human Recombinant Calcium Ion Channel Cav2.2/β3/α2δ-1
# There are four subtypes of the voltage-gated calcium ion channel α2δ subunit, α2δ-1, α2δ-2, α2δ-3 and α2δ-4, in which α2δ-1 is the subtype that mediates chronic neuropathic pain (Field, M. J. et al.; Proc. Natl. Acad. Sci. U.S.A. 2006, 103, 17537-17542). Therefore, the binding strength of a compound to α2δ-1 is a direct indicator for measuring an analgesic effect thereof on the chronic neuropathic pain (Calandre, E. P. et al.; Expert Rev. Neuroether. 2016, 16, 1263-1277).
# The in vitro binding strength of the compound of the present application to human recombinant calcium ion channel Cav2.2/β3/α2δ-1 is basically operated according to a reported method (Gee, N. S. et al.; J. Biol. Chem. 1996, 271, 5768-5776; Marais, E. et al.; Mol. Pharmacol. 2001, 59, 1243-1248). CHO cells expressing the human recombinant calcium ion channel Cav2.2/β3/α2δ-1 were used in the test. After routine separation of cell membranes, 3 μg of the cell membranes were added into each well with a modified HEPES/KOH buffer solution (pH 7.4) as a solution of the test system. Then, 5 nM [^3H]gabapentin and the compound to be tested at 6 concentrations (3, 9, 27, 81, 243, and 729 nM) were added, and the test system was incubated at 25° C. for 120 min. Non-specific binding was obtained by replacing the compound to be tested in the above test system with […] gabapentin. After the incubation was completed, the cell membranes were collected by filtration and washed with 50 mM Tris-HCl (pH 7.4), and then the radioactivity of [^3H]gabapentin bound to the cell membranes was tested by a liquid scintillation technology. […] An inhibition rate of the compound of the present application on the binding of the [^3H]gabapentin to the human recombinant calcium ion channel Cav2.2/β3/α2δ-1 was calculated according to the following formula: […]
# wherein • I is the radioactivity corresponding to that the compound to be tested and [^3H]gabapentin are simultaneously co-incubated with the human recombinant calcium ion channel Cav2.2/β3/α2δ-1, • I0 is the radioactivity corresponding to co-incubation of [^3H]gabapentin and the human recombinant calcium ion channel Cav2.2/β3/α2δ-1 without adding the compound to be tested into the incubation system, and • IU is the radioactivity corresponding to that 10 μM gabapentin and [^3H]gabapentin are simultaneously co-incubated with the human recombinant calcium ion channel Cav2.2/β3/α2δ-1.
# The concentration of the compound to be tested that inhibits 50% of the binding of [^3H]gabapentin to the human recombinant calcium ion channel Cav2.2/β3/α2δ-1 is defined as IC50, and the IC50 is calculated by nonlinear least squares regression analysis using the above inhibition rate (MathIQ™, ID Business Solutions Ltd., UK).
# [2] = test system: Sprague Dawley (SD) rat spared nerve injury (SNI) model; assay: Analgesic effect in rat spared nerve injury (SNI) chronic neuropathic pain model; type: in vivo; conditions: SNI rats; for maximum possible effect (% MPE) / area under the mechanical pain threshold-time curve compared with the vehicle control group: oral gavage 30 mg/kg (calculated by free base); for maximum possible effect (% MPE) / maximum possible effect (MPE): from AUC of mechanical pain threshold-time curve to 24 h; for maximum possible effect (MPE): oral gavage 10 mg/kg (calculated by free base)
# Procedure: Establishment of the SNI model: Surgery was performed according to an aseptic operation method, and various surgical instruments, including scalpels, tweezers, suture needles/threads, surgical cotton, etc., were disinfected before the surgery. Animals were anesthetized by intraperitoneal injection of a Zoletil™ 50 solution at 50 mg/kg and then placed in lateral decubitus positions. After hair in surgical areas of lower bodies of animals was shaved, the animals were disinfected alternately with iodophor and 75% alcohol. The skin was cut at upper edges of left hind limbs, muscles were bluntly separated to expose a sciatic nerve trunk and 3 branches thereof, i.e., a tibial nerve, a common peroneal nerve and a sural nerve. The tibial nerve and the common peroneal nerve were ligated and cut, and the sural nerve was preserved and maintained intact. After the surgery, wounds were sutured layer by layer, the animals were administered with 25% ampicillin (1 mL/kg) through intraperitoneal injection to prevent infection, and routine nursing was performed. In sham group, only the sciatic nerve and the branches thereof were exposed, the nerves were not ligated and cut, and other operations were the same as those in the model group. Detection of a mechanical pain threshold: A Von-frey test fiber was used to detect the mechanical pain threshold of the sole of an operative side of each animal on day 1, day 3 and day 7 after the surgery, respectively. An “up-and-down” method was used as a method of detecting the mechanical pain threshold at the stimulation intensity of 0.4, 0.6, 1, 2, 4, 6, 8, and 15 g. During the test, the test fiber was used to vertically stimulate the site, close to an outer side, in the sole center of the left hind paw of a rat for 6-8 seconds each time at an interval of 5 seconds. A pain response was shown as an obvious paw withdrawal, paw licking, or paw lifting behavior of the animals during each test. From day 11 after the surgery, the animals were placed in an experimental environment for adaptation, wherein the adaptation was performed continuously for 15 min per day for 3 days. On day 13, a basic value of mechanical pain hypersensitivity was detected after the adaptation was completed. The mechanical pain hypersensitivity was expressed by a 50% paw-withdrawal threshold (PWT) according to a calculation formula of 50% PWT (g)=10^xf+kδ, wherein xf is a log value of a fiber test force, k is a tabular value, and δ is an average spacing of the log value of the fiber test force.
# Pharmacodynamic evaluation: According to basic threshold detection results on day 13 after the surgery, the animals in the model group without the mechanical pain hypersensitivity, that is, the PWT was greater than 4 g, were excluded, and the other successfully modeled animals were used for a formal test. On day 14 after the surgery, various compound to be tested were newly formulated. Pregabalin was directly dissolved with 0.9% sodium chloride at a dose of 30 mg/kg to obtain a solution at a desired concentration. (±)—I-7, (±)—I-3 and (±)—I-4 p-toluenesulfonate were also completely dissolved with a 0.9% sodium chloride solution at a dose of 30 mg/kg (calculated by free base). The successfully modeled animals were randomly divided into 5 groups with 8 animals in each group. In addition, 7 animals were selected in the sham group. […] The mechanical pain hypersensitivity response of the left hind paw was detected at 1 h, 2 h, 4 h, 6 h, 8 h, 10 h, and 24 h after the administration. Evaluation was performed by using a blind method, and a detection method was the same as above. An area under a mechanical pain threshold-time curve (AUC) was calculated using GraphPad Prism Version 8.0.1 software.
# [3] = test system: male SD rats; assay: Acute toxicity test on rats; conditions: oral gavage 300 mg/kg (calculated by free base)
# Procedure: After adapting to the environment for one week, the SD rats were used in a preliminary acute toxicity test. The compounds were newly formulated on the day of the test. […] After being labeled and weighed, the animals were randomly grouped with 2-4 animals in each group. […] Clinical symptoms of each animal were observed and recorded at 0.5 hours, 1 hour, 2 hours, 4 hours, 6 hours and 24 hours after the administration, respectively. Clinical symptom codes were as follows: 0 no abnormality, 1 mild tremor, 2 unsteady gait, 3 prone position, 4 startle reflex, 5 difficult breathing, 6 righting reflex disappeared, 7 eyelid closure, 8 shortness of breath, and x animal death.
# [4] = test system: mouse 6-Hz psychomotor seizure model; assay: Antiepileptic effect in mouse 6-Hz psychomotor seizure model; type: in vivo; conditions: 6-Hz model, C57BL/6 mice, gavage, dose 200 mg/kg
# Procedure: A negative vehicle control group, a positive drug control group (pregabalin and gabapentin) and a test group of the compounds of the present application were set. Male C57BL/6 mice with a body weight of 20±2 g were selected. […] After fasted for 12 h, the mice were administered the compounds of the present application or the control drugs, and then subjected to 6-Hz electrical stimulation to induce epilepsy seizure behaviors after a certain time interval (2 h for pregabalin, 1 h for gabapentin, 1 h for levetiracetam, and 3 h for the compounds of the present application). In an induction model, when the stimulation was performed with a Model 4100 stimulator (A-M Systems, the United States), rear necks of the mice were immobilized by hands on a feeding cage, a corneal electrode was moisten with normal saline and allowed to gently contact bilateral corneas of the mice, the electrical stimulator was trod by a foot to give the mice the electrical stimulation with a stimulation parameter of 6-Hz, a one-way square wave of 32 mA, a wave width of 0.2 ms and a stimulation duration of 3 sec, and timing was performed with a stopwatch during the stimulation. After the electrical stimulation was completed, the mice with the seizure behaviors lasting for less than 7 sec were regarded as being protected by the drugs, and the mice with the seizure behaviors lasting for more than 7 sec were regarded as being not protected from the epilepsy by the drugs. Response situations of the animals were observed and recorded, and obtained data were counted to calculate protection rates of the compounds.
# Statistical method: The protection rates of different administration groups were separately compared with that of the vehicle control group to carry out a Fisher's exact test.
IC50 [1],Structure (SMILES),further results
470 nM,NCC1(CC(=O)O)C[C@@H]2C1C1C=C[C@H]2C1 (mixture of isomers) [(±)-I-2],–
15.2 nM,NCC1(CC(=O)O)CC2C3CC[C@@H](C3)[C@@H]21 (mixture of isomers) [(±)-I-3],maximum possible effect (% MPE) [2]: 44.80%
450 nM,NCC1(CC(=O)O)CC2C3CCC(CC3)C21 (racemic) [(±)-I-5],–
> 729 nM,CC1=C(C)C2(C)C3C(CC3(CN)CC(=O)O)C1(C)C2C (racemic) [(±)-I-8],–
> 729 nM,NCC1(CC(=O)O)CC2C1C1CCC2C12CC2 (racemic) [(±)-I-10],–
600 nM,CC1(C)C2CC[C@@H]1[C@H]1C2CC1(CN)CC(=O)O (mixture of isomers) [(±)-I-14],–
477 nM,CC1C2CC[C@@H]1[C@H]1C2CC1(CN)CC(=O)O (mixture of isomers) [(±)-I-16],–
453 nM,CC1C2C=CC1C1C2CC1(CN)CC(=O)O (racemic) [(±)-I-17 p-toluenesulfonate],–
> 729 nM,CC1=C(C)C2(C)CC1(C)C1CC(CN)(CC(=O)O)C12 (racemic) [(±)-I-18],–
> 729 nM,CC1=C(C)C2(C)C3C(CC3(CN)CC(=O)O)C1(C)C2(C)C (racemic) [(±)-I-19],–

# Continued, molecule first:
Structure (SMILES),IC50 [1],further results
NCC1(CC(=O)O)CC2C3CCC(C3)C21 (racemic) [(±)-I-1],> 729 nM,–
Cc1ccc(S(=O)(=O)O)cc1.NCC1(CC(=O)O)CC2C3C=CC(C3)C21 (racemic) [(±)-I-4 p-toluenesulfonate],–,area under the mechanical pain threshold-time curve compared with the vehicle control group [2]: significantly improved; maximum possible effect (% MPE) [2]: 95.95%
NCC1(CC(=O)O)CC2C3C=CC(CC3)C21 (racemic) [(±)-I-6 p-toluenesulfonate],300 nM,–
NCC1(CC(=O)O)CC2C3C[C@H]([C@H]4C[C@H]34)[C@@H]21 (mixture of isomers) [(±)-I-7],70 nM,"area under the mechanical pain threshold-time curve compared with the vehicle control group [2]: significantly improved; maximum possible effect (% MPE) [2]: 73.63%; animal death [3]: no animals are dead; Observation of clinical symptoms 0.5 h ([3]; per animal): 0; Observation of clinical symptoms 2 h ([3]; per animal): 3; Observation of clinical symptoms 4 h ([3]; per animal): 0; Observation of clinical symptoms 6 h ([3]; per animal): 0; Observation of clinical symptoms 24 h ([3]; per animal): 0; Observation of clinical symptoms 1 h ([3]; per animal, 300 mg/kg): 3"
NCC1(CC(=O)O)CC2C1C1C=CC2C12CC2 (racemic) [(±)-I-9 p-toluenesulfonate],> 729 nM,–
NCC1(CC(=O)O)CC2C3C=CC(C3)C21 (racemic) [(±)-I-11 p-toluenesulfonate],> 729 nM,–
NCC1(CC(=O)O)CC2C3CCC(C3)C21 (racemic) [(±)-I-12],> 729 nM,–
CC1(C)C2C=CC1C1C2CC1(CN)CC(=O)O (racemic) [(±)-I-15 p-toluenesulfonate],580 nM,–
"Cc1ccc(S(=O)(=O)O)cc1.NCC1(CC(=O)O)CC2C3CCC(C3)C21 (single isomer, unassigned; (-)) [(−)-I-3 p-toluenesulfonate]",> 243 nM,maximum possible effect (MPE) [2]: 30.22%
"NCC1(CC(=O)O)CC2C3C=CC(C3)C21 (single isomer, unassigned; (-)) [(−)-I-4 p-toluenesulfonate]",> 243 nM,maximum possible effect (MPE) [2]: 18.53%
CC[C@@H](C(N)=O)N1CCCC1=O [Levetiracetam],–,Number of animals with clonic seizures/total number [4]: 3/11**; Protection rate (%) [4]: 72.7 *** %
